The values below come from patent publication US5693640A, “Pyridazino-indole derivatives” (Merck, Sharp & Dohme, Ltd., priority 1994, dated 1997).

One assay concerns NMDA. The assay is described as follows: Cortical slice studies: responses to NMDA in rat cortical slice. The note with it: calculated from righthand shift in the NMDA concentration-response curve, read-out: apparent equilibrium constant (Kb) in response to NMDA. The text has this:
(§1) The compounds useful in this invention potently and selectively block responses to NMDA and/or AMPA in a brain slice from rat cortex, and inhibit the binding of agonists and antagonists to the strychnine-insensitive site present on the NMDA receptor and/or AMPA binding to rat forebrain membranes.
The effects of compounds of use in the invention on responses to NMDA and AMPA can be assessed using the rat cortical slice as described by Wong et al., Proc. Natl. Acad. Sci. USA, 1986, 83, 7104. The apparent equilibrium constant (Kb) is calculated from the righthand shift in the NMDA or AMPA concentration-response curves produced by the compound under test.

For assay [1], the target named is T1, strychnine-insensitive site present on the NMDA receptor (Rattus norvegicus, UniProt P35439).
T1 construct: strychnine-insensitive site present on the NMDA receptor of rat forebrain membranes; from tissue; host or cells: rat forebrain membranes
The assay can be described thus: Displacement of 3H-L-689,560 binding, rat forebrain membranes. Particulars: read-out: concentration required to displace 50% of the specific binding (IC50).
From the text: as §1
The ability of test compounds to displace ^3 H-L-689,560 (trans-2-carboxy-5,7-dichloro-4-phenylaminocarbonylamino-1,2,3,4-tetrahydroquinoline) binding to the strychnine-insensitive site present on the NMDA receptor of rat forebrain membranes can be determined by the method of Grimwood et al., Proceedings of the British Pharmacological Society, July 1991, Abstract C78.

Turning to `O=c1[nH]n(-c2ccccc2)c(=O)c2c1[nH]c1ccccc12` [Example 1, 2-Phenylpyridazino[4,5-b]indole-1,4-dione], the Kb in the assay on NMDA is < 150 µM. Further, the IC50 in assay [1] was < 50 µM.
